Experiment: xn = mol fraction of the nth substance listed
Conditions: 101.3 kPa, Liquid; for viscosity: Capillary tube (Ostwald / Ubbelohde) method; for mass density: Pycnometric method; for thermal conductivity: Hot wire method

OCCCOCCCO [4-oxa-1,7-heptanediol] + O
Conditions	mass density [kg/m3]	thermal conductivity [W/m/K]	viscosity [mPa·s]
293.4 K, x1 = 0.5	1034	–	59.9
293.9 K, x1 = 0.75	1028	–	88.5
295.05 K, x1 = 0.25	1040	–	22.3
297.8 K, x1 = 0.25	–	0.248	–
297.9 K, x1 = 0.5	–	0.19	–
298.4 K, x1 = 0.75	–	0.167	–
313.05 K, x1 = 0.25	1026	–	9.14
313.05 K, x1 = 0.5	1019	–	18.6
313.05 K, x1 = 0.75	1013	–	25.8
323.9 K, x1 = 0.25	–	0.256	–
324.8 K, x1 = 0.75	–	0.169	–
324.9 K, x1 = 0.5	–	0.193	–
333.1 K, x1 = 0.25	1010	–	4.3
333.1 K, x1 = 0.5	1003	–	7.68
333.1 K, x1 = 0.75	997	–	9.71
349.3 K, x1 = 0.5	–	0.195	–
349.9 K, x1 = 0.25	–	0.26	–
350.1 K, x1 = 0.75	–	0.167	–
353.1 K, x1 = 0.25	992.8	–	2.42
353.1 K, x1 = 0.5	986	–	3.89
353.1 K, x1 = 0.75	980.5	–	4.71
368.25 K, x1 = 0.25	979.2	–	1.72
372.2 K, x1 = 0.5	969.5	–	2.33
372.2 K, x1 = 0.75	964.3	–	2.73
374 K, x1 = 0.25	–	0.264	–
374.9 K, x1 = 0.5	–	0.196	–
375.1 K, x1 = 0.75	–	0.169	–
378.75 K, x1 = 0.25	–	–	1.41
382.5 K, x1 = 0.5	960.1	–	1.85
382.5 K, x1 = 0.75	955.2	–	2.14
392.3 K, x1 = 0.75	946.2	–	1.72
392.4 K, x1 = 0.5	951	–	1.53
394.25 K, x1 = 0.5	949.4	–	–
395.75 K, x1 = 0.5	–	–	1.45
395.95 K, x1 = 0.25	953.1	–	–
397.45 K, x1 = 0.25	–	–	0.983
398.6 K, x1 = 0.25	–	0.263	–
398.9 K, x1 = 0.5	–	0.195	–
399 K, x1 = 0.75	–	0.169	–
402.3 K, x1 = 0.75	936.9	–	1.43
405.35 K, x1 = 0.75	934.5	–	–
406.85 K, x1 = 0.75	–	–	1.33
407.85 K, x1 = 0.5	936.8	–	–
408.35 K, x1 = 0.25	941.3	–	–
410.85 K, x1 = 0.5	–	–	1.11
411.35 K, x1 = 0.25	–	–	0.803
418.35 K, x1 = 0.75	923	–	–
421.35 K, x1 = 0.75	–	–	1.05
423.8 K, x1 = 0.25	–	0.264	–
424.3 K, x1 = 0.75	–	0.167	–
424.4 K, x1 = 0.5	–	0.193	–
426.35 K, x1 = 0.5	918.8	–	–
426.75 K, x1 = 0.25	922.7	–	–
429.35 K, x1 = 0.5	–	–	0.829
429.75 K, x1 = 0.25	–	–	0.63
437.25 K, x1 = 0.75	904.2	–	–
440.25 K, x1 = 0.75	–	–	0.795
444.65 K, x1 = 0.25	904.1	–	–
445.25 K, x1 = 0.5	899.1	–	–
447.65 K, x1 = 0.25	–	–	0.512
448.25 K, x1 = 0.5	–	–	0.64
448.8 K, x1 = 0.5	–	0.187	–
448.9 K, x1 = 0.75	–	0.163	–
455.15 K, x1 = 0.75	887.2	–	–
458.15 K, x1 = 0.75	–	–	0.641
